Our source for the Ki values is BindingDB's records for doi:10.1016/j.bmc.2015.05.058 (Washington University, 2015).

The structures appear in SMILES notation.

The target of the assay is T1, Vesicular acetylcholine transporter (Homo sapiens, UniProt Q16572).
T1 sequence (Q16572 whole entry): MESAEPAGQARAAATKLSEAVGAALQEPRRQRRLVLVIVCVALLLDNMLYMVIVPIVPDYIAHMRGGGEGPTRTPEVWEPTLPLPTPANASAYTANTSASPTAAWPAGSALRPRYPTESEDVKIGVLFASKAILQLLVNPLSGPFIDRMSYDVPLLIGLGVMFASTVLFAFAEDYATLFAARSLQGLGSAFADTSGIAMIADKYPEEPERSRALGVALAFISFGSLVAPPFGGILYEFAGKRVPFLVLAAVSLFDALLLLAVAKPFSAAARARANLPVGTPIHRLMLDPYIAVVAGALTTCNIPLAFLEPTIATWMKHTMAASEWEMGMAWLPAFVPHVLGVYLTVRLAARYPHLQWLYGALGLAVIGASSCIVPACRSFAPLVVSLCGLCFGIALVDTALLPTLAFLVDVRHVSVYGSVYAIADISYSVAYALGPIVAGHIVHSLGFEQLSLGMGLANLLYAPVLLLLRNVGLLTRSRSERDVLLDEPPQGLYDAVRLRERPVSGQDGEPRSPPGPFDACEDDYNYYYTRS
As to the kind of experiment: Displacement of [3H]-vesamicol from human VAChT after 24 hrs by liquid scintillation spectrometry analysis. In general terms: In a radioligand displacement assay an active substance lowers the binding of a labelled ligand.
The compound `O=C(c1ccc(F)cc1)C1CCN([C@@H]2Cc3c(cccc3OCCF)C[C@H]2O)CC1` displayed a Ki of 1.6 nM.
Compound `O=C(c1ccc(F)cc1)C1CCN(C2Cc3c(cccc3OCCF)CC2O)CC1` (stereo not drawn) came in with a Ki of 13 nM.
For `O=C(c1ccc(F)cc1)C1CCN([C@@H]2Cc3cccc(OCCF)c3C[C@H]2O)CC1` the value was 93 nM.

Broadly, the Ki is the dissociation constant of the complex between target and ligand, obtained from inhibition or displacement.
